# Data: US9737525B2, “Small molecule activators of NRF2 pathway” (The General Hospital Corporation, priority 2013, dated 2017)
# Columns and labels:
# NRF2 responsive genes = assay: Microarray gene expression profiling in mutant HTT ST14A cells (Case III); type: cell-based, rat; details: 5 μM 24 hours vs untreated
# Description: RNA was extracted from HD mutant and wild type ST14A cells, differentiated for 24 hours and treated with vehicle (DMSO) or with 5 μM MIND4, using the RNeasy kit (Qiagen). Labeled cRNAs were prepared and hybridized to Affymetrix GeneChip Rat Genome 230 2.0 microarrays according to the manufacturer's instructions. Affymetrix CEL (intensity) files from hybridized arrays were imported into the Partek Genome Suite, Partek Incorporated, for biostatistical analysis. 2 CEL files were used for each experimental condition: wild type (WT) untreated, MIND4 treated (WT/MIND4), mutant (MTT) untreated, and mutant (MTT) MIND4-terated (MTT/MIND4). Two-way ANOVA was performed with interaction term included and three of the evaluated contrasts were of interest (Case I, II, and III). Gene lists were created for each of the three contrasts using the thresholds of absolute value of fold-change>1.5 and p-value with False Discovery Rate (FDR)<0.05. The lengths of the gene lists are for Case I (DP)-1765 genes, for Case II (TP)-1797 genes, and for Case III (MDDP)-268 genes. These three gene lists were imported into Ingenuity IPA for pathway and network analyses. These analyses provided Networks (graph structures of molecules connected by relationships in the IPA knowledgebase), Functions (lists of molecules grouped together due to their contribution to a biological function) and Canonical Pathways (molecules and relationships that participate in a biological pathway). Scores are assigned according to the probability that the genes from the user's list might appear in the function or pathway by chance (right-tailed Fisher's Exact Test).
# To determine whether MIND4 might engage targets other than SIRT2, the gene expression changes in treated versus untreated mutant HTT and wild type ST14A cells were evaluated using an approach described previously (Luthi-Carter et al., 2010). RNA from rat embryonic striatal (ST14A) cells stably expressing a 546 amino acid HTT fragment containing either an expanded (128Q) or wild type (26Q) repeat was extracted following treatment with 5 μM MIND4 for 24 hours was extracted and run on Affymetrix rat microarrays (Affy GeneChip Rat Genome 230 2.0 array) as described above in General Methods. Two replicates for each of the experimental conditions were imported into Partek Genome Suite for biostatistical analysis. Genes showing significant differential expression were identified by ANOVA, for three contrasts, resulting in three gene-lists: mutant HD (MT) vs. wild type (WT)=Case I (Disease Phenotype); MT/MIND4 treated vs. WT=Case II (Treatment Phenotype), and MT/MIND4 treated vs. MT=Case III (Mutant Drug-Dependent Phenotype). These represented transcriptional alterations in MT compared to WT cells (Case I), in MT treated compared to WT cells (Case II), and in MT treated cells compared to untreated MT cells (Case III). The lists, Cases I-III, were then imported into Ingenuity Pathway Analysis (IPA—Ingenuity® Systems, www.ingenuity.com) for pathway and network analyses.
# [1] = Detection of MIND4 in mouse brain after escalated i.p. dosing; type: in vivo; details: brain cortex, intraperitoneal, i.p. daily, escalated 50 to 275 mg/kg, 2 hours after last dose, HPLC, read-out: Concentration in wild type mouse cortices
# Description: To evaluate whether MIND4 would also confer an anti-inflammatory effect in vivo, pilot studies were performed to assess brain permeability of MIND4 in mice (FIG. 7A-B). MIND4 was solubilized at 5 mg/ml in 7.5% Cremophor EL (BASF)/2.375% Ethanol in PBS, Wild type mice (N=3) were subjected to MIND4 treatment at escalated dosing from 50 mg/kg up to a final dose of 275 mg/kg administered daily by intraperitoneal (i.p.) injection. […] Mice were sacrificed 2 hours following the last drug administration and isolated cortical samples were subjected to HPLC analysis.
# Specifically, frozen mouse cortical tissues were extracted in ice cold methanol containing 0.4% acetic acid (approximately 1:6 ratios), probe sonicated for 5 sec and centrifuged at 22000×g for 20 min at 4 C. The supernatant was dried under centrifugation and vacuum and reconstituted with running buffer. Reverse phase-HPLC/ECA separation was accomplished on shisedo MG240 C18 HPLC column (4.6×250 mm, 3μ particle size), flow rate 1 ml/min, using 50% methanol in 0.1M sodium phosphate buffer pH 3, isocratic elution was performed for 20 min using 4 channel electrochemical array. Levels of MIND4 in the brain samples were determined using integrated peak areas and the standard curves
smiles,measurement,setting,value
"O=[N+]([O-])c1ccc(Sc2nnc(COc3ccccc3)n2-c2ccccc2)c2ncccc12 [MIND4, 5-nitro-8-{[5-(phenoxymethyl)-4-phenyl-4H-1,2,4-triazol-3-yl]thio}quinoline]","Fold Increase, AOX1",NRF2 responsive genes,3.18 fold
same,"Fold Increase, CAT",NRF2 responsive genes,1.72 fold
same,"Fold Increase, DNAJA4",NRF2 responsive genes,1.53 fold
same,"Fold Increase, DNAJB9",NRF2 responsive genes,1.63 fold
same,"Fold Increase, FRA1",NRF2 responsive genes,3.17 fold
same,"Fold Increase, GCLC",NRF2 responsive genes,2.11 fold
same,"Fold Increase, GCLM",NRF2 responsive genes,3.32 fold
same,"Fold Increase, GSR",NRF2 responsive genes,2.14 fold
same,"Fold Increase, GSTA3",NRF2 responsive genes,20.09 fold
same,"Fold Increase, GSTM5",NRF2 responsive genes,1.89 fold
same,"Fold Increase, GSTP1",NRF2 responsive genes,2.21 fold
same,"Fold Increase, GSTT2/GSTT2B",NRF2 responsive genes,1.96 fold
same,"Fold Increase, HERPUD1",NRF2 responsive genes,1.55 fold
same,"Fold Increase, HO-1",NRF2 responsive genes,6.14 fold
same,"Fold Increase, KEAP1",NRF2 responsive genes,1.53 fold
same,"Fold Increase, MAFF",NRF2 responsive genes,1.75 fold
same,"Fold Increase, MGST1",NRF2 responsive genes,1.84 fold
same,"Fold Increase, MGST2",NRF2 responsive genes,2.94 fold
same,"Fold Increase, MRP4",NRF2 responsive genes,3.37 fold
same,"Fold Increase, NQO1",NRF2 responsive genes,7.34 fold
same,"Fold Increase, SQSTM1",NRF2 responsive genes,1.82 fold
same,"Fold Increase, TRXR1",NRF2 responsive genes,3.31 fold
same,concentration at 2 h,[1],~500 nM
